# Columns and labels:
# [1] = test system: Mycobacterium tuberculosis; assay: Antitubercular activity against Mycobacterium tuberculosis H37Ra transfected with TYOK plasmid assessed as relative light units after 4 days by selectable marker-free autoluminescent assay; assay type: functional; conditions: 96 h
# [2] = test system: Mycobacterium tuberculosis; assay: In vivo anti-tubercular activity against Mycobacterium tuberculosis H37Ra transfected with TYOK plasmid infected in BALB/c mouse assessed as increase in ratio of RLU on day 3 to RLU on day 1 at 10 mg/kg/day administered QD for 3 days relative to control; assay type: functional
# [3] = Cytotoxicity against African green monkey Vero cells assessed as reduction cell survival rate after 72 hrs by CCK8 assay; assay type: toxicity, cell-based, Chlorocebus sabaeus
# [4] = Solubility of the compound; assay type: physicochemical
# [5] = AUC (0 to infinity) in Sprague-Dawley rat at 10 mg/kg, administered through oral gavage by LC/MS analysis; assay type: ADME, organism-based; set-up: dose 10 mg/kg, time infinity, route oral; conditions: in vivo
# [6] = AUC (0 to infinity) in Sprague-Dawley rat at 2 mg/kg, iv by LC/MS analysis; assay type: ADME, organism-based; set-up: dose 2 mg/kg, time infinity, route intravenous; conditions: in vivo
# [7] = Cmax in Sprague-Dawley rat at 10 mg/kg, administered through oral gavage by LC/MS analysis; assay type: ADME, organism-based; set-up: dose 10 mg/kg, route oral; conditions: in vivo
# [8] = Cmax in Sprague-Dawley rat at 2 mg/kg, iv by LC/MS analysis; assay type: ADME, organism-based; set-up: dose 2 mg/kg, route intravenous; conditions: in vivo
# [9] = Tmax in Sprague-Dawley rat at 10 mg/kg, administered through oral gavage by LC/MS analysis; assay type: ADME, organism-based; conditions: in vivo
# [10] = Tmax in Sprague-Dawley rat at 2 mg/kg, iv by LC/MS analysis; assay type: ADME, organism-based; conditions: in vivo
# [11] = Half life in Sprague-Dawley rat at 10 mg/kg, administered through oral gavage by LC/MS analysis; assay type: ADME, organism-based; conditions: in vivo
# [12] = Half life in Sprague-Dawley rat at 2 mg/kg, iv by LC/MS analysis; assay type: ADME, organism-based; conditions: in vivo
# [13] = Clearance in Sprague-Dawley rat at 10 mg/kg, administered through oral gavage by LC/MS analysis; assay type: ADME, organism-based; conditions: in vivo
# [14] = Clearance in Sprague-Dawley rat at 2 mg/kg, iv by LC/MS analysis; assay type: ADME, organism-based; conditions: in vivo
# [15] = Oral bioavailability in Sprague-Dawley rat at 10 mg/kg by LC/MS analysis; assay type: ADME, organism-based; conditions: in vivo
# [16] = test system: Mycobacterium tuberculosis; assay: In vivo anti-tubercular activity against Mycobacterium tuberculosis H37Ra transfected with TYOK plasmid infected in BALB/c mouse assessed as decrease in ratio of RLU on day 3 to RLU on day 1 administered QD for 3 days; assay type: functional, organism-based
# [17] = test system: Mycobacterium tuberculosis; assay: In vivo anti-tubercular activity against Mycobacterium tuberculosis H37Ra transfected with TYOK plasmid infected in BALB/c mouse assessed as ratio of RLU on day 3 to RLU on day 1 at 2.5 mg/kg/day administered QD for 3 days; assay type: functional
# [18] = test system: Mycobacterium tuberculosis; assay: In vivo anti-tubercular activity against Mycobacterium tuberculosis H37Ra transfected with TYOK plasmid infected in BALB/c mouse assessed as ratio of RLU on day 3 to RLU on day 1 at 10 mg/kg/day administered QD for 3 days; assay type: functional
# [19] = test system: Mycobacterium tuberculosis; assay: In vivo anti-tubercular activity against Mycobacterium tuberculosis H37Ra transfected with TYOK plasmid infected in BALB/c mouse assessed as ratio of RLU on day 3 to RLU on day 1 at 40 mg/kg/day administered QD for 3 days; assay type: functional
SMILES,MIC [1],IC50 at 72 h [3],also measured
NNC(=O)c1ccncc1 [ISONIAZID],0.1 µg/mL,,fold change (FC) [2]: 1.25
Cc1ccc2oc(C)c(C(=O)NCc3ccc(N4CCC(c5ccc(OC(F)(F)F)cc5)CC4)cc3)c2c1,> 30 µg/mL,,
Cc1ccc2[nH]c(C)c(C(=O)NCc3ccc(N4CCC(c5ccc(OC(F)(F)F)cc5)CC4)cc3)c2c1,10 µg/mL,,
Cc1nn2ccsc2c1C(=O)NCc1ccc(N2CCC(c3ccc(OC(F)(F)F)cc3)CC2)cc1,0.3 µg/mL,> 100 µM,
Cc1nc2scc(C)n2c1C(=O)NCc1ccc(N2CCC(c3ccc(OC(F)(F)F)cc3)CC2)cc1,1 µg/mL,> 100 µM,solubility [4]: Insoluble
Cc1nn2c(C)csc2c1C(=O)NCc1ccc(N2CCC(c3ccc(OC(F)(F)F)cc3)CC2)cc1,0.1 µg/mL,> 100 µM,
Cc1nc2sccn2c1C(=O)NCc1ccc(N2CCC(c3ccc(OC(F)(F)F)cc3)CC2)cc1,0.03 µg/mL,> 100 µM,
CCc1nc2ccc(Cl)cn2c1C(=O)NCc1ccc(N2CCC(c3ccc(OC(F)(F)F)cc3)CC2)cc1 [TELACEBEC],0.003 µg/mL,,
CO[C@H]1/C=C/O[C@@]2(C)Oc3c(C)c(O)c4c(O)c(c(/C=N/N5CCN(C)CC5)c(O)c4c3C2=O)NC(=O)/C(C)=C\C=C\[C@H](C)[C@H](O)[C@@H](C)[C@@H](O)[C@@H](C)[C@H](OC(C)=O)[C@@H]1C [RIFAMPIN],0.003 µg/mL,,
Cc1ccn2nc(C)c(C(=O)NCc3ccc(N4CCC(c5ccc(OC(F)(F)F)cc5)CC4)cc3)c2n1,> 30 µg/mL,,
Cc1nn2ccc(=O)[nH]c2c1C(=O)NCc1ccc(N2CCC(c3ccc(OC(F)(F)F)cc3)CC2)cc1,> 30 µg/mL,,
Cc1cn2nc(C)c(C(=O)NCc3ccc(N4CCC(c5ccc(OC(F)(F)F)cc5)CC4)cc3)c2s1,0.03 µg/mL,> 100 µM,AUC(0-inf) [5]: 8560 ng·h/mL; AUC(0-inf) [6]: 4110 ng·h/mL; Cmax [7]: 373 ng/mL; Cmax [8]: 1720 ng/mL; Tmax [9]: 5 h; Tmax [10]: 4.98 min; half-life [11]: 13.4 h; half-life [12]: 14.1 h; CL/F [13]: 20.2 mL/min/kg; clearance [14]: 8.17 mL/min/kg; bioavailability [15]: 41.7%; Activity [16]: Dose-dependent effect; Ratio [17]: 1.05; Ratio [18]: 0.91; Ratio [19]: 0.36
Cc1cn2c(C(=O)NCc3ccc(N4CCC(c5ccc(OC(F)(F)F)cc5)CC4)cc3)c(C)nc2s1,0.01 µg/mL,> 100 µM,solubility [4]: Insoluble

# From ChEMBL document CHEMBL3868613, “Discovery of new chemical entities as potential leads against Mycobacterium tuberculosis” (Bioorg Med Chem Lett, 2016)
